The values that follow come from PubChem BioAssay AID316 (DTP/NCI, 2004).

This assay deals with P1534 leukemia ip, CD2F1 mice, survival T/C. The assay can be described thus: NCI In Vivo Anticancer Drug Screen. Data for tumor model P1534 Leukemia (intraperitoneal) in CD2F1 (CDF1) mice. The following applies: endpoint: mean survival time, higher = longer survival. The procedure: The antitumor activity of compounds was measured in mice bearing transplantable tumors. Survival or tumor size were measured and the results are expressed as the measurement made in the treated group (T) divided by the measurement made in the vehicle treated control group (C). The tumor model used in this assay is P1534 Leukemia (intraperitoneal) in CD2F1 (CDF1) mice

[1] abbreviates: dose: 25.0 mg/kg/injection, schedule: Q01DX010 (ip), vehicle: saline.
Setting [2] is: dose: 50.0 mg/kg/injection, schedule: Q01DX010 (ip), vehicle: saline.
Where [3] appears, read: dose: 100.0 mg/kg/injection, schedule: Q01DX010 (ip), vehicle: saline.
The mark [4] stands for this setting: dose: 200.0 mg/kg/injection, schedule: Q01DX010 (ip), vehicle: saline.
Setting [5] is: dose: 400.0 mg/kg/injection, schedule: Q01DX010 (ip), vehicle: saline.
[6] abbreviates: dose: 31.3 mg/kg/injection, schedule: Q01DX010 (ip), vehicle: saline.
Where [7] appears, read: dose: 62.5 mg/kg/injection, schedule: Q01DX010 (ip), vehicle: saline.
Where [8] appears, read: dose: 12.5 mg/kg/injection, schedule: Q01DX010 (ip), vehicle: saline.

Values joined by “and” are separate entries in the source; they are usually repeats but may differ in a detail not shown here. Equal entries are not always repeated. Toxic doses and inconclusive results are not listed.

`O=[n+]1c2c(n([O-])c3ccccc31)-c1cccc3cccc-2c13`: the T/C runs as follows: under setting [1], 92 % of control and 96 % of control; under setting [2], 103 % of control and 92 % of control; under setting [3], 92 % of control and 96 % of control; under setting [4], 92 % of control.
Take `CC1=NN(c2ccccc2)C(=O)C1`: the T/C by setting is: (dose: 150.0 mg/kg/injection, schedule: Q01DX010 (ip), vehicle: water) 94 % of control; (dose: 300.0 mg/kg/injection, schedule: Q01DX010 (ip), vehicle: water) 91 % of control.
Consider `COCCOC`, for which the T/C runs as follows: (dose: 300.0 mg/kg/injection, schedule: Q01DX010 (ip), vehicle: saline) 100 % of control; (dose: 450.0 mg/kg/injection, schedule: Q01DX010 (ip), vehicle: saline) 107 % of control; (dose: 675.0 mg/kg/injection, schedule: Q01DX010 (ip), vehicle: saline) 103 % of control.
Take `CC1CCC2C(C)C3C(CC4C5CC=C6CC(OC7OC(CO)C(O)C(OC8OC(CO)C(O)C(O)C8O)C7OC7OC(C)C(O)C(O)C7O)CCC6(C)C5CCC43C)N2C1` (stereo not given): the T/C is, setting by setting: under setting [2], 96 % of control; under setting [3], 100 % of control; under setting [4], 96 % of control; under setting [5], 92 % of control.
Regarding `CC(CCc1ccc(OC(=O)c2ccccc2)cc1)OC(=O)c1ccccc1` (stereo not given), the T/C runs as follows: under setting [2], 96 % of control; under setting [3], 89 % of control; under setting [4], 86 % of control; under setting [5], 89 % of control.
On to `NC(=O)c1cn[nH]c1N`, for which the T/C runs as follows: (dose: 100.0 mg/kg/injection, schedule: Q01DX010 (ip), vehicle: water) 100 % of control; (dose: 200.0 mg/kg/injection, schedule: Q01DX010 (ip), vehicle: water) 93 % of control.
Turning to `CC(O)CCc1ccc(O)cc1` (stereo not given), the T/C runs as follows: (dose: 18.8 mg/kg/injection, schedule: Q01DX010 (ip), vehicle: saline) 100 % of control; (dose: 37.5 mg/kg/injection, schedule: Q01DX010 (ip), vehicle: saline) 92 % of control; (dose: 75.0 mg/kg/injection, schedule: Q01DX010 (ip), vehicle: saline) 92 % of control; (dose: 150.0 mg/kg/injection, schedule: Q01DX010 (ip), vehicle: saline) 100 % of control.
As for `COc1cc2c(c(OC)c1OC)-c1ccc(OC)c(=O)cc1[C@@H](NC(C)=O)CC2`, the T/C is 100 % of control (dose: 0.04 mg/kg/injection, schedule: Q01DX010 (ip), vehicle: saline); 123 % of control (dose: 0.05 mg/kg/injection, schedule: Q01DX010 (ip), vehicle: saline); 100 % of control (dose: 0.06 mg/kg/injection, schedule: Q01DX010 (ip), vehicle: saline); 188 % of control (dose: 0.12 mg/kg/injection, schedule: Q01DX010 (ip), vehicle: saline); 213 % of control (dose: 0.18 mg/kg/injection, schedule: Q01DX010 (ip), vehicle: saline); 161 % of control (dose: 0.2 mg/kg/injection, schedule: Q01DX015 (ip), vehicle: saline). The T/C is, setting by setting: (dose: 0.2 mg/kg/injection, schedule: Q02DX008 (ip), vehicle: saline) 174 % of control; (dose: 0.27 mg/kg/injection, schedule: Q01DX010 (ip), vehicle: saline) 253 % of control; (dose: 0.3 mg/kg/injection, schedule: Q01DX015 (ip), vehicle: saline) 212 % of control; (dose: 0.3 mg/kg/injection, schedule: Q02DX008 (ip), vehicle: saline) 159 % of control; (dose: 0.45 mg/kg/injection, schedule: Q01DX015 (ip), vehicle: saline) 257 % of control; (dose: 0.45 mg/kg/injection, schedule: Q02DX008 (ip), vehicle: saline) 261 % of control. Besides, the T/C is 318 % of control (dose: 0.67 mg/kg/injection, schedule: Q02DX008 (ip), vehicle: saline); 348 % of control (dose: 0.9 mg/kg/injection, schedule: Q## X004 (ip), vehicle: saline); 304 % of control (dose: 1.0 mg/kg/injection, schedule: Q02DX008 (ip), vehicle: saline); 242 % of control (dose: 1.0 mg/kg/injection, schedule: Q## X032 (ip), vehicle: saline); 255 % of control (dose: 1.1 mg/kg/injection, schedule: Q01DX001 (ip), vehicle: saline); 328 % of control (dose: 1.3 mg/kg/injection, schedule: Q## X004 (ip), vehicle: saline). Moreover, the T/C is, setting by setting: (dose: 1.6 mg/kg/injection, schedule: Q## X032 (ip), vehicle: saline) 352 % of control; (dose: 1.7 mg/kg/injection, schedule: Q01DX001 (ip), vehicle: saline) 208 % of control; (dose: 2.4 mg/kg/injection, schedule: Q## X032 (ip), vehicle: saline) 240 % of control; (dose: 2.5 mg/kg/injection, schedule: Q01DX001 (ip), vehicle: saline) 241 % of control.
As for `C/C=C1\CN2C3C[C@H]1C(C(=O)OC)[C@H]2Cc1c3[nH]c2ccccc12` (stereo not given in full), the T/C reads like this: (dose: 7.5 mg/kg/injection, schedule: Q01DX010 (ip), vehicle: saline) 100 % of control; (dose: 15.0 mg/kg/injection, schedule: Q01DX010 (ip), vehicle: saline) 93 % of control; (dose: 30.0 mg/kg/injection, schedule: Q01DX010 (ip), vehicle: saline) 93 % of control.
Regarding `CNCC(O)(C(=O)O)C(=O)O`, the T/C is, setting by setting: under setting [2], 103 % of control; under setting [3], 96 % of control.
On to `CCCCNc1ncnc2c1cnn2C`, for which the T/C runs as follows: under setting [6], 100 % of control; under setting [7], 88 % of control and 100 % of control.
Consider `CC(=O)NNC(=O)c1ccccn1`, for which the T/C was 100 % of control (dose: 110.0 mg/kg/injection, schedule: Q01DX010 (ip), vehicle: water); 107 % of control (dose: 120.0 mg/kg/injection, schedule: Q01DX010 (ip), vehicle: water); 98 % of control (dose: 140.0 mg/kg/injection, schedule: Q01DX010 (ip), vehicle: water); 112 % of control (dose: 160.0 mg/kg/injection, schedule: Q01DX010 (ip), vehicle: water).
Turning to `CC(=O)Nc1c(Cl)cc2c(c1Cl)Cc1cc([N+](=O)[O-])ccc1-2`, the T/C is, setting by setting: (dose: 15.6 mg/kg/injection, schedule: Q01DX010 (ip), vehicle: saline) 107 % of control; under setting [6], 107 % of control; under setting [7], 107 % of control and 100 % of control; (dose: 125.0 mg/kg/injection, schedule: Q01DX010 (ip), vehicle: saline) 107 % of control.
Consider `O=C1C(=O)N(CN2CCOCC2)c2ccccc21`, for which the T/C runs as follows: under setting [2], 100 % of control; under setting [3], 100 % of control; under setting [4], 96 % of control; under setting [5], 103 % of control.
Turning to `C[C@]12CCC(=O)C=C1CC[C@@H]1[C@@H]2[C@@H](O)C[C@@]2(C)[C@H]1CC[C@]2(O)C(=O)CO`, the T/C reads like this: (dose: 10.0 mg/kg/injection, schedule: Q01DX005 (sc), vehicle: steriod suspending solution) 110 % of control (2×) and 118 % of control; (dose: 50.0 mg/kg/injection, schedule: Q01DX005 (sc), vehicle: steriod suspending solution) 104 % of control (2×) and 110 % of control; (dose: 100.0 mg/kg/injection, schedule: Q01DX005 (sc), vehicle: steriod suspending solution) 90 % of control and 95 % of control; (dose: 200.0 mg/kg/injection, schedule: Q01DX005 (sc), vehicle: steriod suspending solution) 87 % of control and 89 % of control; (dose: 250.0 mg/kg/injection, schedule: Q01DX005 (sc), vehicle: steriod suspending solution) 93 % of control.
Consider `COc1c(OC2OC(CO)C(O)C(O)C2O)cc2c(c1OC)-c1ccc(OC)c(=O)cc1C(NC(C)=O)CC2` (stereo not given), for which the T/C (dose: 6.25 mg/kg/injection, schedule: Q01DX010 (ip), vehicle: saline) is 107 % of control; the T/C under setting [8] is 107 % of control; the T/C under setting [1] was 107 % of control; the T/C under setting [2] is 107 % of control and 110 % of control.
Consider `C[C@@H](N)[C@@H](O)c1ccccc1`, for which the T/C reads like this: (dose: 0.39 mg/kg/injection, schedule: Q01DX010 (ip), vehicle: saline) 103 % of control; (dose: 0.78 mg/kg/injection, schedule: Q01DX010 (ip), vehicle: saline) 100 % of control; (dose: 1.56 mg/kg/injection, schedule: Q01DX010 (ip), vehicle: saline) 100 % of control; (dose: 3.13 mg/kg/injection, schedule: Q01DX010 (ip), vehicle: saline) 103 % of control.
As for `COc1ccc2cc3[n+](cc2c1O)CCc1cc2c(cc1-3)OCO2`, the T/C runs as follows: under setting [8], 111 % of control; under setting [1], 123 % of control; under setting [2], 115 % of control.
